Biological target: T1, CFTR (Homo sapiens, UniProt P13569, DEL508-508)
T1 construct: endogenous in cells; host or cells: primary human bronchial epithelial cells from CF subjects (F508del/MF-HBE), differentiated at air-liquid interface
Assay: HBE2 assay: Ussing chamber assay of CFTR-mediated short-circuit currents
Format: cell-based
Conditions: F508del/MF-HBE cells, with 44 nM potentiator, 18-24 hours, 20% human serum; for Emax: read-out: HBE2 Max activity (%)
Outline: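 F508del/MF-HBE cultured >14 days at air-liquid interface, mounted in Ussing chambers; transepithelial short-circuit current recorded under voltage clamp (Vhold=0 mV) at 37 °C. CFTR-mediated ISC (μA/cm^2) taken as peak forskolin response relative to steady-state current after inhibition; corrector activity assessed this way.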

T1 sequence (P13569 with tags, fused parts or gaps DEL508-508): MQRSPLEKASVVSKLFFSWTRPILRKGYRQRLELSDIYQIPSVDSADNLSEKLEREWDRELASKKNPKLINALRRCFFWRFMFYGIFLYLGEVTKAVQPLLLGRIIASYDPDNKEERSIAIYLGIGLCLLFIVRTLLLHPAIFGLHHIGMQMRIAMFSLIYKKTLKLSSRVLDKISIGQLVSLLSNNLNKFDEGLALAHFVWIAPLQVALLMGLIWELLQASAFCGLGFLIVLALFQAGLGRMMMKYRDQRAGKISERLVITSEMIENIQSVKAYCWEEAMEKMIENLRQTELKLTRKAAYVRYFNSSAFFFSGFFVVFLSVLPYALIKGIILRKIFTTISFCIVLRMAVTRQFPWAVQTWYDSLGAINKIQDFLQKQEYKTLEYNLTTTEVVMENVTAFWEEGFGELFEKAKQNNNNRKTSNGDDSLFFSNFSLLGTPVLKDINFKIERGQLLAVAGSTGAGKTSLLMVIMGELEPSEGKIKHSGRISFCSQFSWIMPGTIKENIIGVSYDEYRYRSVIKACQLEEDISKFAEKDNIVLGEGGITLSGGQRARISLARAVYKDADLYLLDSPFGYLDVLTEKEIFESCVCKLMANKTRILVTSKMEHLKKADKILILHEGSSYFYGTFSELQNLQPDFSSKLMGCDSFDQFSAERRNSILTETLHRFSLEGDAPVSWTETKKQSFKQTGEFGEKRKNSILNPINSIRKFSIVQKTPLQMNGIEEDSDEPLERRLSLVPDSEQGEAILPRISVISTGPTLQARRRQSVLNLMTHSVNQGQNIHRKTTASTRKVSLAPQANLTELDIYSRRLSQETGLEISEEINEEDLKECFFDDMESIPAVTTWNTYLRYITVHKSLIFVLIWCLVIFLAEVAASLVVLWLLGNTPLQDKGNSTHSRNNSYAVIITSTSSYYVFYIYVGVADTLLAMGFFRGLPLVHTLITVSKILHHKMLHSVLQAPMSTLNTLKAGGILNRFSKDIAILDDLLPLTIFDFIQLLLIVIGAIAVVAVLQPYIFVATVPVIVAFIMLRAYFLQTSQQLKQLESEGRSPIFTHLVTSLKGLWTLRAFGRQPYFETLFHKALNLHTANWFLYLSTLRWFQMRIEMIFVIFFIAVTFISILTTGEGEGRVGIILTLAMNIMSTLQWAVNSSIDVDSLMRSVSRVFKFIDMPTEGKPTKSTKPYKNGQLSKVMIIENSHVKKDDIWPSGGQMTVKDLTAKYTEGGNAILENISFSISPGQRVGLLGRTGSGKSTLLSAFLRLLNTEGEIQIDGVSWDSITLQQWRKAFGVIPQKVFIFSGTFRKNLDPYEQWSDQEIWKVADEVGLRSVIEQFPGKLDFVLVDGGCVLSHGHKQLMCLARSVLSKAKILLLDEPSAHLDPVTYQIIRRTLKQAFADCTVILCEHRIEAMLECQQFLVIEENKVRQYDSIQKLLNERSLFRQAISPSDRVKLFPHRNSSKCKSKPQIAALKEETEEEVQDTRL

Row | HBE2 Activity at 3 μM (%) | EC50 | Emax | SMILES
1 | +++ (+++ is >60+) | – | – | CC(=O)N[C@H](C)c1cccc(CN2C(=O)c3cccc(c3)S(=O)(=O)Nc3nc(cc(-c4c(C)cccc4C)n3)OC[C@H]2CC(C)(C)C)n1 [Compound 1592]
2 | – | < 1000 nM | > 60% | Cc1cccc(C)c1-c1cc2nc(n1)NS(=O)(=O)c1cccc(c1)C(=O)N(Cc1ncc(N3CC(C)(C)C3)cn1)[C@H](CC1CCC1)CO2 [Compound 1594]
3 | +++ (+++ is >60+) | – | – | Cc1cccc(C)c1-c1cc2nc(n1)NS(=O)(=O)c1cccc(c1)C(=O)N(Cc1ncc(N3CC(C)(C)C3)cn1)[C@H](CCC1CC1)CO2 [Compound 1595]
4 | +++ (+++ is >60+) | – | – | CCOc1cnc(CN2C(=O)c3cccc(c3)S(=O)(=O)Nc3nc(cc(-c4c(C)cccc4C)n3)OC[C@H]2CCC2CC2)nc1 [Compound 1596]
5 | +++ (+++ is >60+) | – | – | Cc1cccc(C)c1-c1cc2nc(n1)NS(=O)(=O)c1cccc(c1)C(=O)N(Cc1ncc(OC(C)C)cn1)[C@H](CCC1CC1)CO2 [Compound 1597]
6 | +++ (+++ is >60+) | – | – | CCC(C)Oc1cnc(CN2C(=O)c3cccc(c3)S(=O)(=O)Nc3nc(cc(-c4c(C)cccc4C)n3)OC[C@H]2CCC2CC2)nc1 (stereo partly shown) [Compound 1598]
7 | +++ (+++ is >60+) | – | – | CCOc1cnc(CN2C(=O)c3cccc(c3)S(=O)(=O)Nc3nc(cc(-c4c(C)cccc4C)n3)OC[C@H]2CCC(C)C)nc1 [Compound 1599]
8 | +++ (+++ is >60+) | – | – | CCCOc1cnc(CN2C(=O)c3cccc(c3)S(=O)(=O)Nc3nc(cc(-c4c(C)cccc4C)n3)OC[C@H]2CCC2CC2)nc1 [Compound 1600]
9 | +++ (+++ is >60+) | – | – | Cc1cccc(C)c1-c1cc2nc(n1)NS(=O)(=O)c1cccc(c1)C(=O)N(Cc1cncc(OC3CCC3)n1)[C@H](CC(C)(C)C)CO2 [Compound 1601]
10 | – | < 1000 nM | > 60% | Cc1cccc(C)c1-c1cc2nc(n1)NS(=O)(=O)c1cccc(c1)C(=O)N(Cc1cncc(N(C)C3CC(F)(F)C3)n1)[C@H](CC(C)(C)C)CO2 [Compound 1602]
11 | – | < 1000 nM | > 60% | Cc1cccc(C)c1-c1cc2nc(n1)NS(=O)(=O)c1cccc(c1)C(=O)N(Cc1cncc(NC3CCC3)n1)[C@H](CC(C)(C)C)CO2 [Compound 1603]
12 | – | < 1000 nM | > 60% | Cc1cccc(C)c1-c1cc2nc(n1)NS(=O)(=O)c1cccc(c1)C(=O)N(Cc1cncc(N3CCC34CCC4)n1)[C@H](CC(C)(C)C)CO2 [Compound 1604]
13 | +++ (+++ is >60+) | – | – | Cc1cccc(C)c1-c1cc2nc(n1)NS(=O)(=O)c1cccc(c1)C(=O)N(Cc1cncc(N3CCCC3c3ccnn3C)n1)[C@H](CC(C)(C)C)CO2 (stereo partly shown) [Compound 1605]
14 | +++ (+++ is >60+) | – | – | Cc1cccc(C)c1-c1cc2nc(n1)NS(=O)(=O)c1cccc(c1)C(=O)N(Cc1cncc(N3CCCC3c3ccnn3C)n1)[C@H](CC(C)(C)C)CO2 (stereo partly shown) [Compound 1606]
15 | +++ (+++ is >60+) | – | – | CO[C@H]1C[C@@H](N(C)c2cncc(CN3C(=O)c4cccc(c4)S(=O)(=O)Nc4nc(cc(-c5c(C)cccc5C)n4)OC[C@H]3CC(C)(C)C)n2)C1 [Compound 1611]
16 | +++ (+++ is >60+) | – | – | Cc1cccc(C)c1-c1cc2nc(n1)NS(=O)(=O)c1cccc(c1)C(=O)N(Cc1cnc(N(C)C3CCC3)cn1)[C@H](CC(C)(C)C)CO2 [Compound 1612]
17 | +++ (+++ is >60+) | – | – | Cc1cccc(C)c1-c1cc2nc(n1)NS(=O)(=O)c1cccc(c1)C(=O)N(Cc1cncc(N(C)CC3(C)COC3)n1)[C@H](CC(C)(C)C)CO2 [Compound 1613]
18 | +++ (+++ is >60+) | – | – | Cc1cccc(C)c1-c1cc2nc(n1)NS(=O)(=O)c1cccc(c1)C(=O)N(Cc1cncc(N(C)CC3CCC3)n1)[C@H](CC(C)(C)C)CO2 [Compound 1614]
19 | +++ (+++ is >60+) | – | – | Cc1cccc(C)c1-c1cc2nc(n1)NS(=O)(=O)c1cccc(c1)C(=O)N(Cc1ccnc(N(C)C3CCC3)n1)[C@H](CC(C)(C)C)CO2 [Compound 1616]
20 | +++ (+++ is >60+) | – | – | CC[C@@]1(COC)CCCN1c1cccc(CN2C(=O)c3cccc(c3)S(=O)(=O)Nc3nc(cc(-c4c(C)cccc4C)n3)OC[C@H]2CC(C)(C)C)n1 [Compound 1617]
21 | +++ (+++ is >60+) | – | – | COC[C@H]1C[C@@H](N(C)c2cncc(CN3C(=O)c4cccc(c4)S(=O)(=O)Nc4nc(cc(-c5c(C)cccc5C)n4)OC[C@H]3CC(C)(C)C)n2)C1 [Compound 1619]
22 | +++ (+++ is >60+) | – | – | COC[C@H]1C[C@H](N(C)c2cncc(CN3C(=O)c4cccc(c4)S(=O)(=O)Nc4nc(cc(-c5c(C)cccc5C)n4)OC[C@H]3CC(C)(C)C)n2)C1 [Compound 1620]
23 | +++ (+++ is >60+) | – | – | Cc1cccc(C)c1-c1cc2nc(n1)NS(=O)(=O)c1cccc(c1)C(=O)N(Cc1cncc(N3CCC34COC4)n1)[C@H](CC(C)(C)C)CO2 [Compound 1624]

Row | HBE2 Activity at 3 μM (%) | EC50 | Emax | SMILES
24 | +++ (+++ is >60+) | – | – | Cc1cccc(C)c1-c1cc2nc(n1)NS(=O)(=O)c1cccc(c1)C(=O)N(Cc1cncc(N3CCCC34CCC4)n1)[C@H](CC(C)(C)C)CO2 [Compound 1625]
25 | +++ (+++ is >60+) | – | – | Cc1cccc(C)c1-c1cc2nc(n1)NS(=O)(=O)c1cccc(c1)C(=O)N(Cc1cncc(N3CCCCC34CCC4)n1)[C@H](CC(C)(C)C)CO2 [Compound 1626]
26 | +++ (+++ is >60+) | – | – | Cc1cccc(C)c1-c1cc2nc(n1)NS(=O)(=O)c1cccc(c1)C(=O)N(Cc1cncc(N3CCOCC34CCC4)n1)[C@H](CC(C)(C)C)CO2 [Compound 1627]
27 | ++ (++ is 30-60%) | – | – | Cc1cccc(C)c1-c1cc2nc(n1)NS(=O)(=O)c1cccc(c1)C(=O)N(Cc1cncc(N(C)CC(=O)N(C)C)n1)[C@H](CC(C)(C)C)CO2 [Compound 1630]
28 | +++ (+++ is >60+) | – | – | CO[C@H]1C[C@H](CN(C)c2cncc(CN3C(=O)c4cccc(c4)S(=O)(=O)Nc4nc(cc(-c5c(C)cccc5C)n4)OC[C@H]3CC(C)(C)C)n2)C1 [Compound 1631]
29 | +++ (+++ is >60+) | – | – | CO[C@H](C)CN(C)c1cncc(CN2C(=O)c3cccc(c3)S(=O)(=O)Nc3nc(cc(-c4c(C)cccc4C)n3)OC[C@H]2CC(C)(C)C)n1 [Compound 1633]
30 | +++ (+++ is >60+) | – | – | COCC1(N(C)c2cncc(CN3C(=O)c4cccc(c4)S(=O)(=O)Nc4nc(cc(-c5c(C)cccc5C)n4)OC[C@H]3CC(C)(C)C)n2)CCC1 [Compound 1635]
31 | +++ (+++ is >60+) | – | – | Cc1cccc(C)c1-c1cc2nc(n1)NS(=O)(=O)c1cccc(c1)C(=O)N(Cc1cncc(N(C)c3cnn(C)c3)n1)[C@H](CC(C)(C)C)CO2 [Compound 1636]
32 | +++ (+++ is >60+) | – | – | Cc1cccc(C)c1-c1cc2nc(n1)NS(=O)(=O)c1cccc(c1)C(=O)N(Cc1cncc(N3CCC4C3CC(=O)N4C)n1)[C@H](CC(C)(C)C)CO2 (stereo partly shown) [Compound 1639]
33 | +++ (+++ is >60+) | – | – | CCCOc1cnc(CN2C(=O)c3cccc(c3)S(=O)(=O)Nc3nc(cc(-c4c(C)cccc4C)n3)OC[C@H]2CC2(C)CCC2)nc1 [Compound 1641]
34 | +++ (+++ is >60+) | – | – | Cc1cccc(C)c1-c1cc2nc(n1)NS(=O)(=O)c1cccc(c1)C(=O)N(Cc1cncc(N3CCC4OCCC43)n1)[C@H](CC(C)(C)C)CO2 (stereo partly shown) [Compound 1642]
35 | +++ (+++ is >60+) | – | – | Cc1cccc(C)c1-c1cc2nc(n1)NS(=O)(=O)c1cccc(c1)C(=O)N(Cc1cncc(N3CCC4OCCC43)n1)[C@H](CC(C)(C)C)CO2 (stereo partly shown) [Compound 1643]
36 | +++ (+++ is >60+) | – | – | Cc1cccc(C)c1-c1cc2nc(n1)NS(=O)(=O)c1cccc(c1)C(=O)N(Cc1cncc(N3CC(=O)N(C)C[C@H]3C)n1)[C@H](CC(C)(C)C)CO2 [Compound 1644]
37 | +++ (+++ is >60+) | – | – | CCN(c1nc(CN2C(=O)c3cccc(c3)S(=O)(=O)Nc3nc(cc(-c4c(C)cccc4C)n3)OC[C@H]2CC(C)(C)C)co1)C1CCC1 [Compound 1645]
38 | +++ (+++ is >60+) | – | – | Cc1cccc(C)c1-c1cc2nc(n1)NS(=O)(=O)c1cccc(c1)C(=O)N(Cc1coc(N(C)CC3CCC3)n1)[C@H](CC(C)(C)C)CO2 [Compound 1646]
39 | +++ (+++ is >60+) | – | – | Cc1cccc(C)c1-c1cc2nc(n1)NS(=O)(=O)c1cccc(c1)C(=O)N(Cc1coc(N(C)C3CC(F)(F)C3)n1)[C@H](CC(C)(C)C)CO2 [Compound 1647]
40 | +++ (+++ is >60+) | – | – | Cc1cccc(C)c1-c1cc2nc(n1)NS(=O)(=O)c1cccc(c1)C(=O)N(Cc1cncc(N(C)CCN(C)C(=O)OC(C)(C)C)n1)[C@H](CC(C)(C)C)CO2 [Compound 1648]
41 | +++ (+++ is >60+) | – | – | Cc1cccc(C)c1-c1cc2nc(n1)NS(=O)(=O)c1cccc(c1)C(=O)N(Cc1cncc(N(C)CCOC(C)(C)C)n1)[C@H](CC(C)(C)C)CO2 [Compound 1650]
42 | +++ (+++ is >60+) | – | – | Cc1cccc(C)c1-c1cc2nc(n1)NS(=O)(=O)c1cccc(c1)C(=O)N(Cc1nc(N(C)C3CCC3)c(C)nc1C)[C@H](CC(C)(C)C)CO2 [Compound 1651]
43 | +++ (+++ is >60+) | – | – | Cc1cccc(C)c1-c1cc2nc(n1)NS(=O)(=O)c1cccc(c1)C(=O)N(Cc1cncc(N3CCCC3=O)n1)[C@H](CC(C)(C)C)CO2 [Compound 1652]
44 | +++ (+++ is >60+) | – | – | Cc1cccc(C)c1-c1cc2nc(n1)NS(=O)(=O)c1cccc(c1)C(=O)N(Cc1cncc(N3C(=O)OC[C@H]3C)n1)[C@H](CC(C)(C)C)CO2 [Compound 1653]
45 | +++ (+++ is >60+) | – | – | Cc1cccc(C)c1-c1cc2nc(n1)NS(=O)(=O)c1cccc(c1)C(=O)N(Cc1cnc(N3CC(C)(C)C3)cn1)[C@H](CC(C)(C)C)CO2 [Compound 1654]

Source: patent US20240150377A1, “MODULATORS OF CYSTIC FIBROSIS TRANSMEMBRANE CONDUCTANCE REGULATOR” (VERTEX PHARMACEUTICALS INCORPORATED, priority 2020, published 2024)
